The results in this text go back to US7291451B2, “Modulation of pericyte proliferation” (XOMA Technology Ltd., priority 2000, dated 2007).

Test [1] concerns bovine retinal pericytes (BRPC). Nature of the test: Cell growth assay (DNA content, cell number) in bovine retinal pericytes. Format: cell-based. To be noted: for stimulation of proliferation: 5, 10 or 15% FBS. The protocol: A cell growth assay was performed as follows: Cells were plated onto 12-well culture plates and incubated overnight. The cells were treated with vehicle, vascular endothelial growth factor (VEGF, R & D Systems, Minneapolis, Minn.) at 25 ng/ml, serum, compounds, or combinations thereof. The medium is changed during the incubation period, with fresh medium and fresh test compound added every 2 days. After incubation for indicated time period at 37° C., the cells were lysed in 0.1% SDS and DNA content was measured by means of Hoechst-33258 dye and a fluorometer (model TKO-100, Hoefer Scientific Instruments, San Francisco, Calif.). It has been shown that total cellular DNA content measured in this manner correlates closely with actual cell number as determined by hemocytometer counting of trypsinized cells.
Determinations were performed in triplicate and all experiments were repeated at least three times. Results are expressed as the mean ±standard deviation, unless otherwise indicated. Statistical analysis employed Student's t-test or analysis of variance to compare quantitative data populations with normal distributions and equal variance. Data were analyzed using the Mann-Whitney rank sum test or the Kruskal-Wallis test for populations with non-normal distributions or unequal variance. A P-value of <0.05 was considered statistically significant.
Primary cultures of bovine retinal pericytes (BRPC) were isolated by homogenization and a series of filtration steps as described in King et al., J. Clin. Invest., 1985, 75:1028-36. BRPC were cultured in Dulbecco's modified Eagle's medium (DMEM, Gibco BRL, Grand Island, N.Y.) with 5.5 mM glucose and 20% fetal bovine serum (FBS, Gibco BRL, Grand Island, N.Y.). Cells were characterized for homogeneity by their immunoreactivity with monoclonal antibody 3G5 [Nayak et al., J. Exp. Med. 1988, 167:1003-15]. Cells remained morphologically unchanged under these conditions, as confirmed by light microscopy. Only cells from passages 2 through 7 were used for the experiments.
A cell growth assay was performed as described above in Example 1 and the medium was changed, with fresh medium and fresh test compound added every 2 or 3 days, preferably every 2 days. […] At 20% FBS a six to seven fold increase of total DNA was detected.

Test [2] deals with ischemia-induced retinal neovascularization. Briefly: Ischemia-induced retinal neovascularization in neonatal mice. Type of test: in vivo. The source says: To produce ischemia-induced retinal neovascularization, litters of 7-day-old (postnatal day 7, P7) C57BL/6J mice and their nursing mothers were exposed to 75±2% oxygen for 5 days and then returned to ambient air at age P12 as described in Smith et al., Invest. Ophthalmol. Vis. Sci., 1994, 35:101-111. […] Control animals received saline. After sacrifice and enucleation, flat-mounted, fluorescein-conjugated dextran-perfused retinas were examined to assess the retinal vasculature. This mouse model reflects the effects of hypoxia on inducing angiogenesis in the retina. After birth, the mice are exposed to a high level oxygen for 4-5 days. The effect of high levels of oxygen will decrease or prevent the growth of blood vessels in the retina. Once the mice have been removed from the hyperoxic condition to normal oxygen levels, the retina will develop hypoxia due to the lack of blood vessels. The hypoxia in the retina will induce many growth factors (including VEGF) which leads to a angiogenic response that can be quantitated by measuring the number of nuclei in the blood vessels above the internal limiting membrane. This mouse model of angiogenesis is thought to be a good animal reflection of retinopathy of prematurity. The main growth factor responsible for retinal angiogenesis in this mouse model is thought to be due to the expression of VEGF. […] These neovascular rufts were most prominent on P17-19, but after P23 the neovascularization regressed, and the vascular pattern normalized by P26. As described in Aiello et al., Proc. Nat'l Acad. Sci. USA, 1995, 92:10457-61, mice at P17 (n=5) were deeply anesthetized with pentobarbitol sodium (100 mg/kg) and sacrificed by cardiac perfusion with 4% paraformaldehyde in phosphate-buffered saline. Eyes were enucleated and fixed in 4% paraformaldehyde at 4° C. overnight, and enbedded in paraffin. Over 50 serial sections (6 μm) including optic nerve head were placed on microscope slides. After staining with periodic acid/Schiff reagent and hematoxylin, 10 intact sections of equal length, each 30 μm apart, were evaluated for a span of 300 μm. All retinal vascular cell nuclei anterior to the internal limiting membrane were counted in each section by a fully masked protocol. The mean of all 10 counted sections yielded average neovascular cell nuclei per 6 μm section per eye. No vascular cell nuclei anterior to the internal limiting membrane are observed in normal unmanipulated animals.

“Also recorded” adds a separate entry of the source.

Take “XMP.679: BPI-derived peptide derived from BPI domain II, SEQ ID NO: 3 (KLFKAQAKAKG; XMP.679; listed as Homo sapiens)”: the stimulation of proliferation in test [1] (5 μg/mL) is ~2 fold; in test [1] (15 μg/mL), “no enhancement”. The “growth increase as potency of 20% FBS” value in test [1] (5 μg/ml, 5% FBS) was in the range of 30 to 40%. For the same substance, the “growth compared with 20% FBS” value in test [1] (5 μg/ml, 10% FBS) is listed as “equaled the effect of 20% FBS”. In addition, the retinal pericyte proliferation entry in test [1] (5 μg/ml, 10% FBS) was “greatest increase”; in test [1] (20 μg/ml, 10% FBS) it was “did not”. Further, the “growth compared with 15 or 20% FBS (trend)” value in test [1] (5 μg/ml, 15% FBS) is “may have more growth effect than either 15 or 20% FBS”. For the same substance, the effect on growth result in test [1] (15 μg/ml (higher concentration), 5% FBS, 3 or 6 days) is listed as “did not increase growth; also recorded: did not show-a growth stimulating effect”; in test [1] (15 μg/ml, 10% FBS), “did not have much growth effect”; in test [1] (1 or 5 μg/ml, 5% FBS, 6 days), “increased growth”; in test [1] (15% FBS, concentration not given), “did not increase the growth of pericyte in 15% FBS to any significant amount”. In addition, in test [1] (1, 5, 10, and 15 μg/ml, 10% FBS), the “pericyte DNA content” value is recorded as “Statistically significant increases”. Further, the “decrease of number of nuclei anterior to the internal limiting membrane” value in test [2] (10 mg/kg daily intraperitoneal, p<0.001) was 30 to 40%; in test [2] (20 mg/kg daily intraperitoneal, p<0.01), “approximately 71%”. In addition, in test [2] (10 mg/kg intraperitoneal every 24 hrs P12 to P17), the “retinal vasculature compared with control mice” value is “fewer blood vessels with much less density and tortuosity”. In addition, the “inhibition of retinal neovascularization (dose response)” value in test [2] (range of 10-20 mg/kg) was “inhibits retinal neovascularization in a dose responsive manner”.
